Columns and labels:
Assay in all cases: relative viability (nuclei count vs DMSO), 5 days (fraction); higher = more cells survive
NCI-H3122 = tested on: NCI-H3122
In short: (§1)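 Relative viability was taken as the ratio of nuclei in treated wells to nuclei in vehicle wells. Lung cancer cell lines in 1536-well plates received compounds by pin tool one day after seeding, either one drug alone or a fixed anchor-drug dose plus five library-drug doses (not always all listed) in √10 steps. Nuclei were counted on 4× images after 5 days of treatment, and values are medians of duplicate plates.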

NCI-H2228 = tested on: NCI-H2228
In short: as §1

NCI-H2405 = tested on: NCI-H2405
In short: as §1

HCC-366 = tested on: HCC-366
In short: as §1

NCI-H2009 = tested on: NCI-H2009
In short: as §1

NCI-H596 = tested on: NCI-H596
In short: as §1

SW 1573 = tested on: SW 1573
In short: as §1

SK-MES-1 = tested on: SK-MES-1
In short: as §1

PC-14 = tested on: PC-14
In short: as §1

HOP-62 = tested on: HOP-62
In short: as §1

NCI-H2085 = tested on: NCI-H2085
In short: as §1

NCI-H1734 = tested on: NCI-H1734
In short: as §1

NCI-H1993 = tested on: NCI-H1993
In short: as §1

NCI-H2347 = tested on: NCI-H2347
In short: as §1

RERF-LC-KJ = tested on: RERF-LC-KJ
In short: as §1

HCC-78 = tested on: HCC-78
In short: as §1

NCI-H838 = tested on: NCI-H838
In short: as §1

CAL-12T = tested on: CAL-12T
In short: as §1

LC-2-ad = tested on: LC-2-ad
In short: as §1

NCI-H1355 = tested on: NCI-H1355
In short: as §1

EMC-BAC-2 = tested on: EMC-BAC-2
In short: as §1

LK-2 = tested on: LK-2
In short: as §1

Q: For `O=c1[nH]c2ccccc2n1C1CCN(CCCC(c2ccc(F)cc2)c2ccc(F)cc2)CC1` [Pimozide] + Cc1nc(NC(=O)N2CCC[C@H]2C(N)=O)sc1-c1ccnc(C(C)(C)C(F)(F)F)c1 [Alpelisib] (partner 2 µM), which relative viability (NCI-H3122; first compound 0.08 µM) is on record?
A: 0.833

Q: What about the relative viability (NCI-H3122; first compound 0.253 µM) of the same compound?
A: 0.784

Q: And the relative viability (NCI-H3122; first compound 0.8 µM)?
A: 0.784

Q: What about the relative viability (NCI-H3122; first compound 2.53 µM) of the same compound?
A: 0.784

Q: What about the relative viability (NCI-H3122; first compound 8 µM) of the same compound?
A: 0.795

Q: What about the relative viability (NCI-H2228; first compound 0.08 µM) of the same compound?
A: 0.623

Q: What about the relative viability (NCI-H2228; first compound 0.253 µM) of the same compound?
A: 0.755

Q: And the relative viability (NCI-H2228; first compound 0.8 µM)?
A: 0.735

Q: And the relative viability (NCI-H2228; first compound 2.53 µM)?
A: 0.737

Q: And the relative viability (NCI-H2228; first compound 8 µM)?
A: 0.482

Q: And the relative viability (NCI-H2405; first compound 0.08 µM)?
A: 0.782

Q: And the relative viability (NCI-H2405; first compound 0.253 µM)?
A: 0.622

Q: What about the relative viability (NCI-H2405; first compound 0.8 µM) of the same compound?
A: 0.684

Q: What about the relative viability (NCI-H2405; first compound 2.53 µM) of the same compound?
A: 0.741

Q: And the relative viability (NCI-H2405; first compound 8 µM)?
A: 0.61

Q: What about the relative viability (HCC-366; first compound 0.08 µM) of the same compound?
A: 0.354

Q: What about the relative viability (HCC-366; first compound 0.253 µM) of the same compound?
A: 0.381

Q: What about the relative viability (HCC-366; first compound 0.8 µM) of the same compound?
A: 0.406

Q: And the relative viability (HCC-366; first compound 2.53 µM)?
A: 0.425

Q: And the relative viability (HCC-366; first compound 8 µM)?
A: 0.518

Q: What about the relative viability (NCI-H2009; first compound 0.08 µM) of the same compound?
A: 1.16

Q: And the relative viability (NCI-H2009; first compound 0.253 µM)?
A: 1.15

Q: What about the relative viability (NCI-H2009; first compound 0.8 µM) of the same compound?
A: 1.14

Q: What about the relative viability (NCI-H2009; first compound 2.53 µM) of the same compound?
A: 1.23

Q: What about the relative viability (NCI-H2009; first compound 8 µM) of the same compound?
A: 1.05

Q: And the relative viability (NCI-H596; first compound 0.08 µM)?
A: 0.481

Q: What about the relative viability (NCI-H596; first compound 0.253 µM) of the same compound?
A: 0.476

Q: What about the relative viability (NCI-H596; first compound 0.8 µM) of the same compound?
A: 0.374

Q: And the relative viability (NCI-H596; first compound 2.53 µM)?
A: 0.481

Q: And the relative viability (NCI-H596; first compound 8 µM)?
A: 0.392

Q: What about the relative viability (SW 1573; first compound 0.08 µM) of the same compound?
A: 0.795

Q: What about the relative viability (SW 1573; first compound 0.253 µM) of the same compound?
A: 0.788

Q: What about the relative viability (SW 1573; first compound 0.8 µM) of the same compound?
A: 0.764

Q: What about the relative viability (SW 1573; first compound 2.53 µM) of the same compound?
A: 0.91

Q: And the relative viability (SW 1573; first compound 8 µM)?
A: 0.743

Q: And the relative viability (SK-MES-1; first compound 0.08 µM)?
A: 0.809

Q: And the relative viability (SK-MES-1; first compound 0.253 µM)?
A: 0.966

Q: What about the relative viability (SK-MES-1; first compound 0.8 µM) of the same compound?
A: 0.874

Q: What about the relative viability (SK-MES-1; first compound 2.53 µM) of the same compound?
A: 0.837

Q: What about the relative viability (SK-MES-1; first compound 8 µM) of the same compound?
A: 0.842

Q: And the relative viability (PC-14; first compound 0.08 µM)?
A: 0.606

Q: What about the relative viability (PC-14; first compound 0.253 µM) of the same compound?
A: 0.911

Q: What about the relative viability (PC-14; first compound 0.8 µM) of the same compound?
A: 0.928

Q: And the relative viability (PC-14; first compound 2.53 µM)?
A: 1.05

Q: And the relative viability (PC-14; first compound 8 µM)?
A: 0.955

Q: What about the relative viability (HOP-62; first compound 0.08 µM) of the same compound?
A: 1.2

Q: And the relative viability (HOP-62; first compound 0.253 µM)?
A: 0.783

Q: What about the relative viability (HOP-62; first compound 2.53 µM) of the same compound?
A: 0.904

Q: And the relative viability (HOP-62; first compound 8 µM)?
A: 0.794

Q: And the relative viability (NCI-H2085; first compound 0.08 µM)?
A: 0.928

Q: And the relative viability (NCI-H2085; first compound 0.253 µM)?
A: 0.962

Q: And the relative viability (NCI-H2085; first compound 0.8 µM)?
A: 0.875

Q: What about the relative viability (NCI-H2085; first compound 2.53 µM) of the same compound?
A: 0.981

Q: What about the relative viability (NCI-H2085; first compound 8 µM) of the same compound?
A: 0.864

Q: What about the relative viability (NCI-H1734; first compound 0.08 µM) of the same compound?
A: 0.675

Q: What about the relative viability (NCI-H1734; first compound 0.253 µM) of the same compound?
A: 0.664

Q: And the relative viability (NCI-H1734; first compound 0.8 µM)?
A: 0.68

Q: And the relative viability (NCI-H1734; first compound 2.53 µM)?
A: 0.744

Q: And the relative viability (NCI-H1734; first compound 8 µM)?
A: 0.769

Q: And the relative viability (NCI-H1993; first compound 0.08 µM)?
A: 0.707

Q: And the relative viability (NCI-H1993; first compound 0.253 µM)?
A: 0.648

Q: What about the relative viability (NCI-H1993; first compound 0.8 µM) of the same compound?
A: 0.716

Q: And the relative viability (NCI-H1993; first compound 2.53 µM)?
A: 0.734

Q: What about the relative viability (NCI-H1993; first compound 8 µM) of the same compound?
A: 0.669

Q: And the relative viability (NCI-H2347; first compound 0.08 µM)?
A: 1.11

Q: What about the relative viability (NCI-H2347; first compound 0.253 µM) of the same compound?
A: 0.966

Q: And the relative viability (NCI-H2347; first compound 0.8 µM)?
A: 0.914

Q: And the relative viability (NCI-H2347; first compound 2.53 µM)?
A: 1.01

Q: What about the relative viability (NCI-H2347; first compound 8 µM) of the same compound?
A: 0.966

Q: What about the relative viability (RERF-LC-KJ; first compound 0.08 µM) of the same compound?
A: 0.693

Q: What about the relative viability (RERF-LC-KJ; first compound 0.253 µM) of the same compound?
A: 0.724

Q: And the relative viability (RERF-LC-KJ; first compound 0.8 µM)?
A: 0.807

Q: And the relative viability (RERF-LC-KJ; first compound 2.53 µM)?
A: 0.841

Q: And the relative viability (RERF-LC-KJ; first compound 8 µM)?
A: 0.711

Q: And the relative viability (HCC-78; first compound 0.08 µM)?
A: 0.406

Q: What about the relative viability (HCC-78; first compound 0.253 µM) of the same compound?
A: 0.366

Q: What about the relative viability (HCC-78; first compound 0.8 µM) of the same compound?
A: 0.294

Q: What about the relative viability (HCC-78; first compound 2.53 µM) of the same compound?
A: 0.293

Q: And the relative viability (HCC-78; first compound 8 µM)?
A: 0.329

Q: What about the relative viability (NCI-H838; first compound 0.08 µM) of the same compound?
A: 0.95

Q: And the relative viability (NCI-H838; first compound 0.253 µM)?
A: 0.98

Q: What about the relative viability (NCI-H838; first compound 0.8 µM) of the same compound?
A: 0.967

Q: What about the relative viability (NCI-H838; first compound 2.53 µM) of the same compound?
A: 1.03

Q: And the relative viability (NCI-H838; first compound 8 µM)?
A: 1.04

Q: And the relative viability (CAL-12T; first compound 0.08 µM)?
A: 1.15

Q: What about the relative viability (CAL-12T; first compound 0.253 µM) of the same compound?
A: 1.07

Q: And the relative viability (CAL-12T; first compound 0.8 µM)?
A: 1.02

Q: And the relative viability (CAL-12T; first compound 2.53 µM)?
A: 1.32

Q: What about the relative viability (CAL-12T; first compound 8 µM) of the same compound?
A: 0.923

Q: What about the relative viability (LC-2-ad; first compound 0.08 µM) of the same compound?
A: 0.762

Q: And the relative viability (LC-2-ad; first compound 0.253 µM)?
A: 0.847

Q: And the relative viability (LC-2-ad; first compound 0.8 µM)?
A: 0.934

Q: What about the relative viability (LC-2-ad; first compound 2.53 µM) of the same compound?
A: 0.879

Q: And the relative viability (LC-2-ad; first compound 8 µM)?
A: 0.776

Q: What about the relative viability (NCI-H1355; first compound 0.08 µM) of the same compound?
A: 0.81

Q: And the relative viability (NCI-H1355; first compound 0.253 µM)?
A: 0.873

Q: What about the relative viability (NCI-H1355; first compound 0.8 µM) of the same compound?
A: 0.811

Q: What about the relative viability (NCI-H1355; first compound 2.53 µM) of the same compound?
A: 0.662

Q: What about the relative viability (NCI-H1355; first compound 8 µM) of the same compound?
A: 0.817

Q: And the relative viability (EMC-BAC-2; first compound 0.08 µM)?
A: 0.653

Q: And the relative viability (EMC-BAC-2; first compound 0.253 µM)?
A: 0.703

Q: And the relative viability (EMC-BAC-2; first compound 0.8 µM)?
A: 0.682

Q: What about the relative viability (EMC-BAC-2; first compound 2.53 µM) of the same compound?
A: 0.668

Q: And the relative viability (EMC-BAC-2; first compound 8 µM)?
A: 0.744

Q: And the relative viability (LK-2; first compound 0.08 µM)?
A: 1.12

Q: And the relative viability (LK-2; first compound 0.253 µM)?
A: 1.05

Q: What about the relative viability (LK-2; first compound 0.8 µM) of the same compound?
A: 1.01

Q: And the relative viability (LK-2; first compound 2.53 µM)?
A: 1.01

Q: What about the relative viability (LK-2; first compound 8 µM) of the same compound?
A: 0.779

Reference: the supplement of paper PMC10307832
